Measured values reported in PubChem BioAssay AID256 (DTP/NCI, 2004).
Several values for one entry are separate records, joined by “and”; a condition that tells them apart may be missing. Equal values may be shown once. Toxic doses and inconclusive results are not listed.

System: CD2F1 mice, L1210 leukemia ip, survival T/C
Assay: NCI In Vivo Anticancer Drug Screen. Data for tumor model L1210 Leukemia (intraperitoneal) in CD2F1 (CDF1) mice
Details: higher = longer survival
Experimental: The antitumor activity of compounds was measured in mice bearing transplantable tumors. Survival or tumor size were measured and the results are expressed as the measurement made in the treated group (T) divided by the measurement made in the vehicle treated control group (C). The tumor model used in this assay is L1210 Leukemia (intraperitoneal) in CD2F1 (CDF1) mice

[1] = endpoint: mean survival time, dose: 100.0 mg/kg/injection, schedule: Q01DX009 (ip), vehicle: saline with Tween-80
[2] = endpoint: mean survival time, dose: 200.0 mg/kg/injection, schedule: Q01DX009 (ip), vehicle: saline with Tween-80
[3] = endpoint: mean survival time, dose: 400.0 mg/kg/injection, schedule: Q01DX009 (ip), vehicle: saline with Tween-80
[4] = endpoint: mean survival time, dose: 100.0 mg/kg/injection, schedule: Q04DX003 (ip), vehicle: saline with Tween-80
[5] = endpoint: mean survival time, dose: 75.0 mg/kg/injection, schedule: Q01DX001 (ip), vehicle: saline
[6] = endpoint: mean survival time, dose: 150.0 mg/kg/injection, schedule: Q01DX001 (ip), vehicle: saline

With `COC(=O)C12CCC(C)(C)CC1C1=CCC3C4(C)CCC(OC(C)=O)CC4CCC3(C)C1(C)CC2` (stereo not given) the T/C (endpoint: mean survival time, dose: 100.0 mg/kg/injection, schedule: Q01DX001 (ip), vehicle: saline with Tween-80) was 93 % of control, the T/C [1] was 100 % of control and the T/C (endpoint: mean survival time, dose: 200.0 mg/kg/injection, schedule: Q01DX001 (ip), vehicle: saline with Tween-80) was 92 % of control. For the same compound, the T/C [2] was 100 % of control, the T/C (endpoint: mean survival time, dose: 400.0 mg/kg/injection, schedule: Q01DX001 (ip), vehicle: saline with Tween-80) was 97 % of control and the T/C [3] was 109 % of control.
With `COc1cc(N=CNc2cc(OC)n[n+]([O-])c2)c[n+]([O-])n1` the T/C (endpoint: mean survival time, dose: 12.5 mg/kg/injection, schedule: Q04DX002 (ip), vehicle: saline with Tween-80) was 111 % of control, the T/C (endpoint: mean survival time, dose: 25.0 mg/kg/injection, schedule: Q04DX002 (ip), vehicle: saline with Tween-80) was 86 % of control and the T/C (endpoint: mean survival time, dose: 50.0 mg/kg/injection, schedule: Q04DX002 (ip), vehicle: saline with Tween-80) was 101 % of control.
For `Nc1nc(SCc2ccccc2)c2[nH]cnc2n1`, the T/C (endpoint: mean survival time, dose: 15.6 mg/kg/injection, schedule: Q01DX009 (ip), vehicle: saline) was 118 % of control, the T/C (endpoint: mean survival time, dose: 31.3 mg/kg/injection, schedule: Q01DX009 (ip), vehicle: saline) was 158 % of control and 183 % of control and the T/C (endpoint: mean survival time, dose: 37.5 mg/kg/injection, schedule: Q03DX003 (ip), vehicle: saline) was 151 % of control. The T/C (endpoint: mean survival time, dose: 37.5 mg/kg/injection, schedule: Q04DX003 (ip), vehicle: saline) was 164 % of control, the T/C (endpoint: mean survival time, dose: 62.5 mg/kg/injection, schedule: Q01DX009 (ip), vehicle: saline) was 180 % of control and 181 % of control and the T/C (endpoint: mean survival time, dose: 75.0 mg/kg/injection, schedule: Q04DX003 (ip), vehicle: saline) was 160 % of control. For the same compound, the T/C (endpoint: mean survival time, dose: 125.0 mg/kg/injection, schedule: Q01DX009 (ip), vehicle: saline) was 161 % of control, the T/C (endpoint: mean survival time, dose: 150.0 mg/kg/injection, schedule: Q01DX007 (ip), vehicle: saline) was 107 % of control and the T/C (endpoint: mean survival time, dose: 150.0 mg/kg/injection, schedule: Q01DX009 (ip), vehicle: saline) was 100 % of control. For the same compound, the T/C (endpoint: mean survival time, dose: 150.0 mg/kg/injection, schedule: Q03DX003 (ip), vehicle: saline) was 150 % of control, the T/C (endpoint: median survival time, dose: 31.3 mg/kg/injection, schedule: Q01DX009 (ip), vehicle: saline) was 150 % of control and 162 % of control and the T/C (endpoint: median survival time, dose: 62.5 mg/kg/injection, schedule: Q01DX009 (ip), vehicle: saline) was 155 % of control and 156 % of control. The T/C (endpoint: median survival time, dose: 125.0 mg/kg/injection, schedule: Q01DX009 (ip), vehicle: saline) was 88 % of control and 112 % of control and the T/C (endpoint: median survival time, dose: 250.0 mg/kg/injection, schedule: Q01DX009 (ip), vehicle: saline) was 87 % of control.
`C1CC2CCCN2C1` was tested, and the T/C (endpoint: mean survival time, dose: 12.5 mg/kg/injection, schedule: Q04DX003 (ip), vehicle: acetone) was 96 % of control, the T/C (endpoint: mean survival time, dose: 25.0 mg/kg/injection, schedule: Q04DX003 (ip), vehicle: acetone) was 102 % of control and the T/C (endpoint: mean survival time, dose: 50.0 mg/kg/injection, schedule: Q04DX003 (ip), vehicle: acetone) was 97 % of control.
`O=C(O)/C(Cl)=C(/Cl)C(Cl)=C(Cl)Cl` was tested, and the T/C (endpoint: mean survival time, dose: 25.0 mg/kg/injection, schedule: Q01DX009 (ip), vehicle: saline with Tween-80) was 96 % of control, the T/C (endpoint: mean survival time, dose: 25.0 mg/kg/injection, schedule: Q04DX003 (ip), vehicle: saline with Tween-80) was 100 % of control and the T/C (endpoint: mean survival time, dose: 50.0 mg/kg/injection, schedule: Q01DX009 (ip), vehicle: saline with Tween-80) was 95 % of control. The T/C (endpoint: mean survival time, dose: 50.0 mg/kg/injection, schedule: Q04DX003 (ip), vehicle: saline with Tween-80) was 98 % of control, the T/C [1] was 93 % of control and the T/C [4] was 91 % of control.
For `CCCCCCCCN(CCCCCCCC)CC(O)c1ccc2c(c1)Sc1ccccc1O2` (stereo not given), the T/C [5] was 93 % of control and the T/C [6] was 90 % of control.
With `Cc1ccc(S(=O)(=O)OC2C(COCC(=O)O)OC3OC(C)(C)OC32)cc1` (stereo not given) the T/C [1] was 95 % of control, the T/C [4] was 98 % of control and the T/C [2] was 93 % of control. The T/C (endpoint: mean survival time, dose: 200.0 mg/kg/injection, schedule: Q04DX003 (ip), vehicle: saline with Tween-80) was 101 % of control, the T/C [3] was 90 % of control and the T/C (endpoint: mean survival time, dose: 400.0 mg/kg/injection, schedule: Q04DX003 (ip), vehicle: saline with Tween-80) was 93 % of control.
`Cc1nc(-c2cccc(Cl)c2)oc1-c1ccccc1` was tested, and the T/C (endpoint: mean survival time, dose: 100.0 mg/kg/injection, schedule: Q04DX002 (ip), vehicle: saline with Tween-80) was 115 % of control and the T/C (endpoint: mean survival time, dose: 200.0 mg/kg/injection, schedule: Q04DX002 (ip), vehicle: saline with Tween-80) was 121 % of control.
With `O=C1N(O)C2(CCCCC2)/C(=N/O)C12CCCCC2` the T/C [5] was 100 % of control, the T/C [6] was 94 % of control and the T/C (endpoint: mean survival time, dose: 300.0 mg/kg/injection, schedule: Q01DX001 (ip), vehicle: saline) was 94 % of control.
